These results are taken from PubChem BioAssay (NCI).

Molecules are shown by their SMILES. Several values for one entry are separate records, joined by “and”; a condition that tells them apart may be missing. Equal values may be shown once.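 1) Cells in 96-well plates. 2) Compound, 48 h, 5 concentrations. 3) Linear interpolation between surrounding doses. 4) Unreached endpoint = highest concentration. GI50 = concentration required for 50% inhibition of growth. At the TGI there is no net growth.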

Test systems include KM12 colon; U251 CNS; EKVX NSCLC; HOP-62 NSCLC; MALME-3M melanoma; OVCAR-3 ovarian; OVCAR-4 ovarian; MOLT-4 leukemia.
Holding throughout (test): NCI tumour cell line growth inhibition, 48 h

On to `CCSc1nc2sc(C)c(C)c2c(=O)n1-c1ccc(C(=O)O)cc1`, for which the TGI in the experiment on KM12 colon is over 100 µM; in the experiment on U251 CNS it was over 100 µM; with EKVX NSCLC, over 100 µM; in the experiment on HOP-62 NSCLC, over 100 µM; with MALME-3M melanoma, over 100 µM; in the experiment with OVCAR-3 ovarian it was 74.4 µM. Moreover, the TGI in the experiment with OVCAR-4 ovarian and with MOLT-4 leukemia was over 100 µM in each case.
For `CC(=O)OCC1OC(OC2CC3C(C)(C)C(OC(C)=O)CC[C@]3(C)C3CCC45CC4(CC[C@H]5C(C)CC(O)C4OC4(C)C)[C@]23C)C(O)C(O)C1O` (some centres not stated), the GI50 with KM12 colon was 1.56 µM; in the experiment on U251 CNS it was 3.13 µM; with EKVX NSCLC, over 60 µM; in the experiment with HOP-62 NSCLC it was 2.39 µM; with MALME-3M melanoma, 4.67 µM; in the experiment with OVCAR-4 ovarian, 15.3 µM. Besides, the GI50 with MOLT-4 leukemia was 2.52 µM. Moreover, the TGI in the experiment on KM12 colon is 3.82 µM and 3.15 µM; with U251 CNS it was 7.73 µM and 11.8 µM; in the experiment on EKVX NSCLC, > 60 µM and 11.7 µM; in the experiment on HOP-62 NSCLC, 12.6 µM and 5.37 µM; with MALME-3M melanoma, 16.6 µM and 8.6 µM; in the experiment with OVCAR-3 ovarian, 8.76 µM and 7.08 µM. Also, the TGI was 6.27 µM and 38.9 µM in the experiment on OVCAR-4 ovarian; 1.09 µM and 7.69 µM with MOLT-4 leukemia.
`CCCCCCCCCCCCCC/C(C(=O)OC)=C(/O)C(=O)OCC`: the TGI is 59.8 µM with KM12 colon; 69.4 µM with U251 CNS; over 100 µM with EKVX NSCLC; over 100 µM in the experiment with HOP-62 NSCLC; over 100 µM with MALME-3M melanoma; over 100 µM with OVCAR-3 ovarian. The TGI with OVCAR-4 ovarian and in the experiment with MOLT-4 leukemia was over 100 µM each time.
Consider `FC(F)(F)c1ccc(C=NC23CC4CC(CC(C4)C2)C3)cc1`, for which the TGI with KM12 colon, with U251 CNS, in the experiment with EKVX NSCLC, in the experiment on HOP-62 NSCLC, with MALME-3M melanoma and in the experiment on OVCAR-3 ovarian was over 100 µM throughout. Also, the TGI with OVCAR-4 ovarian and with MOLT-4 leukemia was over 100 µM in each case.
As for `O=C1CC2CCCCC2=C1O` (configuration not stated), the TGI in the experiment with KM12 colon, in the experiment with U251 CNS, in the experiment on EKVX NSCLC, in the experiment on HOP-62 NSCLC, with MALME-3M melanoma and with OVCAR-3 ovarian was over 100 µM each time. Moreover, the TGI in the experiment with OVCAR-4 ovarian and with MOLT-4 leukemia was over 100 µM throughout.
`COC(=O)C1=C(C(=O)OC)C23C=CC=CC24C(C(=O)OC)=C(C(=O)OC)C4C1C3` (configuration not stated): the TGI in the experiment on KM12 colon, with U251 CNS, with EKVX NSCLC, in the experiment on HOP-62 NSCLC, in the experiment with MALME-3M melanoma and in the experiment on OVCAR-3 ovarian was over 100 µM throughout. Also, the TGI in the experiment with OVCAR-4 ovarian and in the experiment with MOLT-4 leukemia was over 100 µM in each case.
`NC(=O)c1csc(C2C=CC(CO)O2)n1` (configuration not stated): the TGI was over 10 µM with KM12 colon; over 100 µM in the experiment with U251 CNS; over 100 µM with EKVX NSCLC; over 100 µM with HOP-62 NSCLC; over 100 µM in the experiment on MALME-3M melanoma; over 10 µM in the experiment on OVCAR-3 ovarian. The TGI with OVCAR-4 ovarian and in the experiment on MOLT-4 leukemia was over 100 µM in each case.
As for `C/C(=N\NC(=O)CC(=O)Nc1ccc(Cl)cc1)c1cc2ccccc2oc1=O`, the TGI in the experiment with KM12 colon, with U251 CNS, with EKVX NSCLC, with HOP-62 NSCLC, in the experiment on MALME-3M melanoma and in the experiment with OVCAR-3 ovarian was over 100 µM each time. In addition, the TGI with MOLT-4 leukemia was over 100 µM.
For `Cn1cc2c(n1)c(N/N=C/c1ccccc1)nn1nnnc21`, the TGI in the experiment on U251 CNS, in the experiment with EKVX NSCLC, in the experiment on HOP-62 NSCLC, in the experiment on MALME-3M melanoma, with OVCAR-3 ovarian and in the experiment with OVCAR-4 ovarian was over 100 µM throughout. The TGI with MOLT-4 leukemia is over 100 µM.
As to `N/N=C1\c2ccccc2C2/C(=N\N)c3ccccc3C12` (configuration not stated), the TGI in the experiment with KM12 colon, with U251 CNS, in the experiment with EKVX NSCLC, with MALME-3M melanoma, in the experiment on OVCAR-3 ovarian and in the experiment with OVCAR-4 ovarian was over 100 µM throughout. For the same compound, in the experiment with MOLT-4 leukemia, the TGI is over 100 µM.
Regarding `C=CCNC1=C(C(=O)OCC)C(=O)CO1`, the TGI in the experiment on U251 CNS, in the experiment with EKVX NSCLC, with MALME-3M melanoma, with OVCAR-3 ovarian, in the experiment with OVCAR-4 ovarian and in the experiment on MOLT-4 leukemia was over 100 µM in each case.
In the case of `COc1ccc(NC(=O)C(=O)NNC(=O)c2sc(NNC(C)=O)nc2C)c([N+](=O)[O-])c1`, the TGI with KM12 colon, in the experiment on U251 CNS, in the experiment on EKVX NSCLC, in the experiment on HOP-62 NSCLC, with MALME-3M melanoma and in the experiment on OVCAR-3 ovarian was over 100 µM in each case. In addition, the TGI with OVCAR-4 ovarian was over 100 µM; in the experiment with MOLT-4 leukemia, 85.1 µM.
Turning to `Cc1ccc(S(=O)(=O)CNC(=S)CCCC(=S)NCS(=O)(=O)c2ccc(C)cc2)cc1`, the TGI in the experiment on KM12 colon, with U251 CNS, in the experiment with EKVX NSCLC, in the experiment on HOP-62 NSCLC, with MALME-3M melanoma and in the experiment with OVCAR-3 ovarian was over 100 µM in each case. For the same compound, the TGI with OVCAR-4 ovarian and in the experiment with MOLT-4 leukemia was over 100 µM in each case.
Consider `NC(=O)N/N=C(\Cc1nc2ccc(C(=O)c3ccccc3)cc2[nH]c1=O)C(=O)Nc1ccc(Br)cc1`, for which the TGI in the experiment on KM12 colon, in the experiment with U251 CNS, with EKVX NSCLC, in the experiment with HOP-62 NSCLC, in the experiment on MALME-3M melanoma and in the experiment with OVCAR-3 ovarian was over 100 µM each time. Moreover, the TGI in the experiment with OVCAR-4 ovarian and with MOLT-4 leukemia was over 100 µM each time.
Regarding `CC(=O)O[C@H]1[C@@H]2[C@@H]3[C@@H](C[C@H]1C)[C@@H](C)CO[C@@]1(C)CC/C=C(/C)C[C@@H]2O[C@@H]31`, the TGI in the experiment with KM12 colon, in the experiment on U251 CNS, with EKVX NSCLC, in the experiment with HOP-62 NSCLC, with MALME-3M melanoma and in the experiment on OVCAR-3 ovarian was over 100 µM in each case. Further, the TGI in the experiment with OVCAR-4 ovarian and with MOLT-4 leukemia was over 100 µM throughout.
